Data as given in US7803792B2, “Quaternary ammonium compounds” (Asahi Kasei Pharma Corporation, priority 2002, dated 2010).

Assays:
[1] = molecular target: T1, human IBAT (Homo sapiens, UniProt Q12908); experiment: In vitro assay of temporarily expressed human IBAT transporter using Cos 7 cells (Test Example 8); format: cell-based; details: Cos 7 cells temporarily expressing human IBAT; [3H] taurocholate 8 μM, 37° C., 60 minutes
T1 construct: expressed in transfected cells; host or cells: Cos 7
T1 sequence (Q12908 1-348): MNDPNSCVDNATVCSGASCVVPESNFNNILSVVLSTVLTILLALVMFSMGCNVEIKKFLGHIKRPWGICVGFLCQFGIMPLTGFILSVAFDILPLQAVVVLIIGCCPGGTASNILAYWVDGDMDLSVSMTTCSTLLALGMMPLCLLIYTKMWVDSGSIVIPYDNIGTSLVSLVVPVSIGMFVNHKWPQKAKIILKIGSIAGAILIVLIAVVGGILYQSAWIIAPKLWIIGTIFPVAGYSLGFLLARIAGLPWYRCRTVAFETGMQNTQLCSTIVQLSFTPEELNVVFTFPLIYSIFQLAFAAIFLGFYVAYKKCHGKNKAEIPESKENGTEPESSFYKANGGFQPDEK
Protocol: In Vitro Assay of Compounds Which Inhibit Temporarily Expressed Human IBAT Transporter or Rat IBAT Transporter Using Cos 7 Cells
In this test example, the in vitro assay of the compounds which inhibit temporarily expressed human IBAT transporter or rat IBAT transporter using Cos cells was carried out according to the method described in Am. J. Physiol., 274, G157-169.
That is, […] Cos 7 were inoculated on a 24-well cell plate. One day later, 0.3 μg per well of cDNA of a human IBAT or a rat IBAT was transfected by using FuGENE6 (manufactured by ROCHE PHARMACEUTICAL CO., LTD.). For the assay, the cells cultured for one day after the transfection were used and the following procedure was followed. The cells were washed once with an assay buffer, Hank's buffer solution containing 25 mM glucose and with 10 mM HEPES (pH 7.4), and then the assay buffer was replaced by an assay buffer to which the test compound was added. After adding [^3H] taurocholate to a final concentration of 8 μM, the cells were incubated at 37° C. for 60 minutes. [^3H] taurocholate was allowed to be incorporated in Cos 7 cells through human IBAT or rat IBAT. The reaction was stopped by washing twice with a buffer prepared by adding 1 mM taurocholate to the assay buffer and lyzing the cells with 0.2M NaOH. Measurement of radioactivity was carried out by introducing the cell lyzate in 4 ml of liquid scintillation cocktail, stirring the mixture well, and then measuring the radioactivity by a scintillation counter.

[2] = test system: Caco 2 cells; experiment: Toxicity with respect to alimentary canal: cytotoxicity to Caco 2, LDH activity (Test Example 12); format: cell-based, human; details: LDH activity after 2 hours, relative to cytolytic agent = 100%
Protocol: Toxicity With Respect to Alimentary Canal
To evaluate the toxicity of the compounds of the present invention to the alimentary canal, the cytotoxicity to Caco 2, which is a human originated small intestine epithelial cell line, was tested by referring to the method of Bestwick C S et al. [Biochimica et Biophysica Acta 1474: 47-55, 1999].
That is, Caco 2 cells (purchased from ATCC) were inoculated on a 96-well plate such that there were 10,000 cells/well [MEM-E medium, 10% FBS (Fetal Bovine Serum), 1% NEAA (Non Essential Amino Acid) solution, (both manufactured by GIBCO PHARMACEUTICAL COMPANY)]. After culturing for 48 hours, the test compounds were diluted with the culture medium and added to the respective wells. After 2 hours, 50 μl of the culture broth was collected and the LDH activity in the collected culture broth was measured by using an LDH activity measuring kit (CytoTox 96 Non-Radioactive Cytotoxicity Assay, manufactured by PROMEGA CORPORATION). Relative activities were calculated assuming the LDH activity as 100% when the Caco 2 cells were treated with the cytolytic agent and the obtained relative activities were taken as cytotoxicities to Caco 2 cell.

| IC50 [1] [µM] | SMILES | other results |
| --- | --- | --- |
| 0.078 | CCCCC1(CCCC)CS(=O)(=O)c2ccc(N(C)C)cc2C(c2cccc(NC(=S)Nc3cccc(C[N+](C)(CCC)CCC)c3)c2)N1 (stereo not drawn) [Example 4243] | – |
| 0.072 | C=CC[N+](C)(C)Cc1cccc(NC(=S)Nc2cccc(C3NC(CCCC)(CCCC)CS(=O)(=O)c4ccc(N(C)C)cc43)c2)c1 (stereo not drawn) [Example 4246] | – |
| 0.091 | C=CC[N+](CC)(CC)Cc1cccc(NC(=S)Nc2cccc(C3NC(CCCC)(CCCC)CS(=O)(=O)c4ccc(N(C)C)cc43)c2)c1 (stereo not drawn) [Example 4247] | – |
| 0.067 | CCCCC1(CCCC)CS(=O)(=O)c2ccc(N(C)C)cc2C(c2cccc(NC(=S)Nc3cccc(C[N+](C)(C)CCc4ccccc4)c3)c2)N1 (stereo not drawn) [Example 4259] | – |
| 0.074 | CCCCC1(CCCC)CS(=O)(=O)c2ccc(N(C)C)cc2C(c2cccc(NC(=S)Nc3cccc(C[N+](C)(CC)Cc4ccccc4)c3)c2)N1 (stereo not drawn) [Example 4260] | – |
| 0.072 | C=Cc1ccc(C[N+](C)(C)Cc2cccc(NC(=S)Nc3cccc(C4NC(CCCC)(CCCC)CS(=O)(=O)c5ccc(N(C)C)cc54)c3)c2)cc1 (stereo not drawn) [Example 4263] | – |
| 0.074 | CCCCC1(CCCC)CS(=O)(=O)c2ccc(N(C)C)cc2C(c2cccc(NC(=S)Nc3cccc(C[N+](C)(C)Cc4cccc(OC)c4)c3)c2)N1 (stereo not drawn) [Example 4371] | – |
| 0.062 | CCCCC1(CCCC)CS(=O)(=O)c2ccc(N(C)C)cc2C(c2cccc(NC(=S)Nc3cccc(C[N+]4(CC)CCCCC4)c3)c2)N1 (stereo not drawn) [Example 4405] | – |
| 0.073 | C=CC[N+]1(Cc2cccc(NC(=S)Nc3cccc(C4NC(CCCC)(CCCC)CS(=O)(=O)c5ccc(N(C)C)cc54)c3)c2)CCCCC1 (stereo not drawn) [Example 4408] | – |
| 0.078 | CCCCC1(CCCC)CS(=O)(=O)c2ccc(N(C)C)cc2C(c2cccc(NC(=S)Nc3cccc(C[N+]4(C)CCN(C)CC4)c3)c2)N1 (stereo not drawn) [Example 4479] | – |
| 0.097 | CCCCC1(CCCC)CS(=O)(=O)c2ccc(N(C)C)cc2C(c2cccc(NC(=S)Nc3cccc(C[N+]45CCN(CC4)CC5)c3)c2)N1 (stereo not drawn) [Example 4522] | – |
| 0.073 | CCCCC1(CCCC)CS(=O)(=O)c2ccc(N(C)C)cc2C(c2cccc(NC(=S)Nc3cccc(C[n+]4ccc(CC)cc4)c3)c2)N1 (stereo not drawn) [Example 4527] | – |
| 0.091 | CCCCC1(CCCC)CS(=O)(=O)c2ccc(N(C)C)cc2C(c2cccc(NC(=S)Nc3cccc(C[n+]4ccc(CCC)cc4)c3)c2)N1 (stereo not drawn) [Example 4528] | – |
| 0.064 | CCCCC1(CCCC)CS(=O)(=O)c2ccc(N(C)C)cc2C(c2cccc(NC(=S)Nc3cccc(C[n+]4cccc(CC)c4)c3)c2)N1 (stereo not drawn) [Example 4539] | – |
| 0.087 | CCCCC1(CCCC)CS(=O)(=O)c2ccc(N(C)C)cc2C(c2cccc(NC(=S)Nc3cccc(C[n+]4cc(C)cc(C)c4)c3)c2)N1 (stereo not drawn) [Example 4546] | – |
| 0.076 | CCCCC1(CCCC)CS(=O)(=O)c2ccc(N(C)C)cc2C(c2cccc(NC(=S)Nc3cccc(C[n+]4ccc(OC)cc4)c3)c2)N1 (stereo not drawn) [Example 4551] | – |
| 0.06 | CCCCC1(CCCC)CS(=O)(=O)c2ccc(N(C)C)cc2C(c2cccc(NC(=S)Nc3cccc(C[n+]4cccc5cc(C)ccc54)c3)c2)N1 (stereo not drawn) [Example 4587] | – |
| 0.078 | CCCCC1(CCCC)CS(=O)(=O)c2ccc(N(C)C)cc2C(c2cccc(NC(=S)Nc3cccc(C[n+]4ccc5ccccc5c4)c3)c2)N1 (stereo not drawn) [Example 4600] | – |
| 0.079 | CCCCC1(CCCC)CS(=O)(=O)c2ccc(N(C)C)cc2C(c2cccc(NC(=S)Nc3cccc(C[N+](C)(C)C(C)c4cccc5ccccc45)c3)c2)N1 (stereo not drawn) [Example 4605] | – |

The remaining lines, values behind:

| SMILES | IC50 [1] [µM] | other results |
| --- | --- | --- |
| CCCCC1(CCCC)CS(=O)(=O)c2ccc(N(C)C)cc2C(c2cccc(NC(=S)Nc3ccc(C[N+]45CCN(CC4)CC5)cc3)c2)N1.[Br-] (stereo not drawn) [Example 3705] | 0.054 | Toxicity (%) to Caco 2 ([2]; 3 μM): <1%; Toxicity (%) to Caco 2 ([2]; 10 μM): <1%; Toxicity (%) to Caco 2 ([2]; 30 μM): <1% |
| CCCCC1(CCCC)CS(=O)(=O)c2ccc(N(C)C)cc2C(c2cccc(NC(=S)Nc3ccc(C[n+]4ccc(C)cc4)cc3)c2)N1.[Br-] (stereo not drawn) [Example 3709] | 0.049 | Toxicity (%) to Caco 2 ([2]; 3 μM): <1%; Toxicity (%) to Caco 2 ([2]; 10 μM): <1%; Toxicity (%) to Caco 2 ([2]; 30 μM): <1% |
| CCCCc1ccc[n+](Cc2ccc(NC(=S)Nc3cccc(C4NC(CCCC)(CCCC)CS(=O)(=O)c5ccc(N(C)C)cc54)c3)cc2)c1.[Br-] (stereo not drawn) [Example 3723] | 0.025 | Toxicity (%) to Caco 2 ([2]; 3 μM): <1%; Toxicity (%) to Caco 2 ([2]; 10 μM): <1%; Toxicity (%) to Caco 2 ([2]; 30 μM): <1% |
| CCCCC1(CCCC)CS(=O)(=O)c2ccc(N(C)C)cc2C(c2cccc(NC(=S)Nc3cccc(C[N+]45CCC(c6ccccc6)(CC4)CC5)c3)c2)N1 (stereo not drawn) [Example 4513] | 0.092 | – |
| CCCCC1(CCCC)CS(=O)(=O)c2ccc(N(C)C)cc2C(c2cccc(NC(=S)Nc3cccc(C[n+]4ccc(-c5ccccc5)cc4)c3)c2)N1 (stereo not drawn) [Example 4534] | 0.076 | – |
| CCCCC1(CCCC)CS(=O)(=O)c2ccc(N(C)C)cc2C(c2cccc(NC(=S)Nc3cccc(C[n+]4cccc(-c5cccs5)c4)c3)c2)N1 (stereo not drawn) [Example 4543] | 0.082 | – |
| CCCCC1(CCCC)CS(=O)(=O)c2ccc(N(C)C)cc2C(c2cccc(NC(=S)Nc3cccc(C[n+]4cc(C)cc(-c5ccccc5)c4)c3)c2)N1 (stereo not drawn) [Example 4547] | 0.072 | – |
| CCCCC1(CCCC)CS(=O)(=O)c2ccc(N(C)C)cc2C(c2cccc(NC(=S)Nc3cccc(C[n+]4cccc5ccccc54)c3)c2)N1 (stereo not drawn) [Example 4585] | 0.078 | – |
| CCCCC1(CCCC)CS(=O)(=O)c2ccc(N(C)C)cc2C(c2cccc(NC(=S)Nc3cccc(C[n+]4cccc5cc(C(C)C)ccc54)c3)c2)N1 (stereo not drawn) [Example 4589] | 0.046 | – |
| CCCCC1(CCCC)CS(=O)(=O)c2ccc(N(C)C)cc2C(c2cccc(NC(=S)Nc3ccc(C[n+]4ccccc4C)cc3)c2)N1 (stereo not drawn) [Example 5407] | 0.052 | – |
| CCCCC1(CCCC)CS(=O)(=O)c2ccc(N(C)C)cc2C(c2cccc(NC(=S)Nc3ccc(C[n+]4c(C)cc(C)cc4C)cc3)c2)N1 (stereo not drawn) [Example 5409] | 0.042 | – |
| CCCCC1(CCCC)CS(=O)(=O)c2ccc(N(C)C)cc2C(c2cccc(NC(=S)Nc3ccc(C[n+]4cccc(F)c4)cc3)c2)N1 (stereo not drawn) [Example 5416] | 0.077 | – |
| CCCCC1(CCCC)CS(=O)(=O)c2ccc(N(C)C)cc2C(c2cccc(NC(=S)Nc3ccc(C[n+]4cc(O)cc(Cl)c4)cc3)c2)N1 (stereo not drawn) [Example 5417] | 0.026 | – |
| CCCCC1(CCCC)CS(=O)(=O)c2ccc(N(C)C)cc2C(c2cccc(NC(=S)Nc3ccc(C[n+]4cccc(Cl)c4)cc3)c2)N1 (stereo not drawn) [Example 5418] | 0.069 | – |
| CCCCCC1(CCCCC)CS(=O)(=O)c2ccc(N(C)C)cc2C(c2cccc(NC(=S)Nc3ccc(C[N+](C)(C)Cc4ccccc4)cc3)c2)N1.[Br-] (stereo not drawn) [Example 5480] | – | Toxicity (%) to Caco 2 ([2]; 3 μM): <1%; Toxicity (%) to Caco 2 ([2]; 10 μM): <1%; Toxicity (%) to Caco 2 ([2]; 30 μM): <1% |
